Literature values, collected in patent US20030158162A1, “Methods of treating ophthalmic disorders with epoxy-steroidal aldosterone receptor antagonists” (priority 2001, published 2003).

Conditions: Klin Monatsbl Augenheilkd 176(3):445-6 (1980)

Question: With `CC(=O)S[C@@H]1CC2=CC(=O)CC[C@]2(C)[C@H]2CC[C@@]3(C)[C@@H](CC[C@@]34CCC(=O)O4)[C@H]12` [Spironolactone] as the compound, how does the “effect on IOP in glaucoma patients” value read?
Answer: Its value is “lower IOP”.
